Paper PMC8964833, “Identification of cell wall synthesis inhibitors active against Mycobacterium tuberculosis by competitive activity-based protein profiling” (Cell Chemical Biology, 2022)
Where two headings read alike, the source gives them in different places.

What was measured:
Pks13 [1] = target: T1, Pks13 (Mycobacterium tuberculosis, UniProt I6X8D2); assay: cell-based; settings: Mycobacterium tuberculosis H37Rv, read-out: % inhibition
Pks13 [2] = target: T1, Pks13; assay: cell-based; settings: Mycobacterium tuberculosis H37Rv, read-out: % inhibition; remark: listed apart in the source

T1 sequence (I6X8D2 whole entry, looked up): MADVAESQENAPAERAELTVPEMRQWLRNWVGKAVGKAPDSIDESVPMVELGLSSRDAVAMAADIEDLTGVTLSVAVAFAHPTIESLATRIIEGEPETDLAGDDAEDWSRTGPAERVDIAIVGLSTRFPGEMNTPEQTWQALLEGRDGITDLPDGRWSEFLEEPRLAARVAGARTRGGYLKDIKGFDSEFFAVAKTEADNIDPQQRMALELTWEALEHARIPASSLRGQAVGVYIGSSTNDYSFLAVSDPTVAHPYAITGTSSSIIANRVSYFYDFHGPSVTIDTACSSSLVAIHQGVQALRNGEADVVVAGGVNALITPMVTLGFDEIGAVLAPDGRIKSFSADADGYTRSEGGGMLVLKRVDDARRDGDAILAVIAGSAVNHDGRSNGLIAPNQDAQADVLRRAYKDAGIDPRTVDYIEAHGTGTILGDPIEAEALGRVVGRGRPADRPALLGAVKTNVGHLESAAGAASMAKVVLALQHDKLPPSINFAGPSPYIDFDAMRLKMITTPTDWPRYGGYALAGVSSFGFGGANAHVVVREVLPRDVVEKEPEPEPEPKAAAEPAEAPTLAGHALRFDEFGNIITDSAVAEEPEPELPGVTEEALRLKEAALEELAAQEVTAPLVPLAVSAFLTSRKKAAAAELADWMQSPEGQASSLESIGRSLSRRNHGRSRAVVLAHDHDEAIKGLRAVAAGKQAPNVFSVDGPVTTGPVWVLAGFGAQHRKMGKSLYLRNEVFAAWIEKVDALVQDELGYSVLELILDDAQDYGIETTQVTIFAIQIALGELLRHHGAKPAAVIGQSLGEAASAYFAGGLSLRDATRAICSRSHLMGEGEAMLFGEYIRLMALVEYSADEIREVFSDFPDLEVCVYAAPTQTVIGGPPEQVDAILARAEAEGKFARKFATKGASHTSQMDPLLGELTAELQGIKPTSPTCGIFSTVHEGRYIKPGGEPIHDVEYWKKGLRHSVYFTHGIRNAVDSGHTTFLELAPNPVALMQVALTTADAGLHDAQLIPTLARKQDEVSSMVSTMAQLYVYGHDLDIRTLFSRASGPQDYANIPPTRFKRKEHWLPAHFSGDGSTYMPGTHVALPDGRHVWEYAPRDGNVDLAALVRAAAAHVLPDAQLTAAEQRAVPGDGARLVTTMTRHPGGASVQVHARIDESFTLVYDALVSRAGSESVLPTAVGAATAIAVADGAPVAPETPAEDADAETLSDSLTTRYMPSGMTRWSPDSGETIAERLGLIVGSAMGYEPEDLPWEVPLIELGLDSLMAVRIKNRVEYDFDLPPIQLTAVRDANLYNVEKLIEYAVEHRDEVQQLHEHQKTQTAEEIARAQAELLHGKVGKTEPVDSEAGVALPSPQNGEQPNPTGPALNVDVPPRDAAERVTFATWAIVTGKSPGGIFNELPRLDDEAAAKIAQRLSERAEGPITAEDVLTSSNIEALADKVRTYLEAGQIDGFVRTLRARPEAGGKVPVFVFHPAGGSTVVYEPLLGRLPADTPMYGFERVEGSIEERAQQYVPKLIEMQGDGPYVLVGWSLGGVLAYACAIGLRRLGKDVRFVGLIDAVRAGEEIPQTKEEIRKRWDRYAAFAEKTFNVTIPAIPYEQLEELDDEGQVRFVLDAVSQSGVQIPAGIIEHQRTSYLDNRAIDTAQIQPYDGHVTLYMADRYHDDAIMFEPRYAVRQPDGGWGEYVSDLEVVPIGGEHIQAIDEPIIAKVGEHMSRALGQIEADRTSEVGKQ

SMILES | inhibition at 13 µM (Pks13 [1]) | inhibition at 13 µM (Pks13 [2])
CC(C)(O)c1cnn(C(=O)N2CCC(C(C)(C)C)CC2)n1 [AA692-(2,4), AA692] | 18% | 0%
CC(C)(O)c1cnn(C(=O)N2CCCCC2)n1 [AA702] | 0% | –
